In PubChem BioAssay AID330 (DTP/NCI, 2004):
Where “and” joins values, the source holds several entries; their conditions need not be identical. Equal values may be shown once. Toxic doses and inconclusive results are not listed. How the source made its calls: active means survival T/C of 150% or more; inactive means T/C below 125% in these data.

Tested on: P388 leukemia ip, CD2F1 mice, survival T/C
Experiment: NCI In Vivo Anticancer Drug Screen. Data for tumor model P388 Leukemia (intraperitoneal) in CD2F1 (CDF1) mice
Settings: endpoint: median survival time, higher = longer survival
Procedure, shortened: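 Mice carrying the transplanted tumor received test compound or vehicle. Survival was recorded in each group, and the value is the treated-group measurement divided by that of the vehicle-treated control group.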

[1] = dose: 100.0 mg/kg/injection, schedule: Q01DX009 (ip), vehicle: saline with Tween-80
[2] = dose: 100.0 mg/kg/injection, schedule: Q04DX003 (ip), vehicle: saline
[3] = dose: 200.0 mg/kg/injection, schedule: Q01DX009 (ip), vehicle: saline with Tween-80
[4] = dose: 200.0 mg/kg/injection, schedule: Q04DX003 (ip), vehicle: saline
[5] = dose: 400.0 mg/kg/injection, schedule: Q04DX003 (ip), vehicle: saline
[6] = dose: 50.0 mg/kg/injection, schedule: Q01DX009 (ip), vehicle: saline with Tween-80
[7] = dose: 50.0 mg/kg/injection, schedule: Q01DX005 (ip), vehicle: Klucel (hydroxypropylcellulose) (HPC)
[8] = dose: 100.0 mg/kg/injection, schedule: Q01DX005 (ip), vehicle: Klucel (hydroxypropylcellulose) (HPC)
[9] = dose: 200.0 mg/kg/injection, schedule: Q01DX005 (ip), vehicle: Klucel (hydroxypropylcellulose) (HPC)
[10] = dose: 25.0 mg/kg/injection, schedule: Q04DX003 (ip), vehicle: saline with Tween-80
[11] = dose: 50.0 mg/kg/injection, schedule: Q04DX003 (ip), vehicle: saline with Tween-80
[12] = dose: 100.0 mg/kg/injection, schedule: Q04DX003 (ip), vehicle: saline with Tween-80
[13] = dose: 400.0 mg/kg/injection, schedule: Q04DX003 (ip), vehicle: saline with Tween-80
[14] = dose: 60.0 mg/kg/injection, schedule: Q01DX005 (ip), vehicle: saline with Tween-80
[15] = dose: 120.0 mg/kg/injection, schedule: Q01DX005 (ip), vehicle: saline with Tween-80
[16] = dose: 240.0 mg/kg/injection, schedule: Q01DX005 (ip), vehicle: saline with Tween-80
[17] = dose: 50.0 mg/kg/injection, schedule: Q01DX009 (ip), vehicle: Klucel (hydroxypropylcellulose) (HPC)
[18] = dose: 100.0 mg/kg/injection, schedule: Q01DX009 (ip), vehicle: Klucel (hydroxypropylcellulose) (HPC)
[19] = dose: 200.0 mg/kg/injection, schedule: Q01DX009 (ip), vehicle: Klucel (hydroxypropylcellulose) (HPC)
[20] = dose: 50.0 mg/kg/injection, schedule: Q01DX009 (ip), vehicle: saline

Measured: T/C

CCCCCCCCC(=O)CC
inactive: [1] 118 % of control | [2] 104 % of control | [3] 109 % of control | [4] 100 % of control | [5] 95 % of control

c1ccc(N=C2c3ccccc3NC2(c2ccccc2)c2ccccc2)cc1
inactive: [6] 101 % of control | [1] 93 % of control

CCCCN(CCCC)CCNc1ccc(C)c2sc3c(Cl)cccc3c(=O)c12
inactive: [7] 99 % of control | [8] 108 % of control | [9] 105 % of control

CCCCOC1=NC2C(=O)NCC2CO1 (stereo not given)
inactive: dose: 50.0 mg/kg/injection, schedule: Q01DX005 (ip), vehicle: saline with Tween-80 97 % of control | dose: 100.0 mg/kg/injection, schedule: Q01DX005 (ip), vehicle: saline with Tween-80 94 % of control | dose: 200.0 mg/kg/injection, schedule: Q01DX005 (ip), vehicle: saline with Tween-80 97 % of control

N#CC(N)C(F)c1ccccc1 (stereo not given)
inactive: dose: 100.0 mg/kg/injection, schedule: Q01DX001 (ip), vehicle: Klucel (hydroxypropylcellulose) (HPC) 100 % of control | dose: 200.0 mg/kg/injection, schedule: Q01DX001 (ip), vehicle: Klucel (hydroxypropylcellulose) (HPC) 101 % of control | dose: 400.0 mg/kg/injection, schedule: Q01DX001 (ip), vehicle: Klucel (hydroxypropylcellulose) (HPC) 101 % of control

S=c1nc(N2CCOCC2)n(/C=C/c2ccccc2)c(=S)n1C(=N/C=C/c1ccccc1)N1CCOCC1
inactive: [10] 113 % of control | [11] 89 % of control | [12] 91 % of control and 97 % of control | [13] 87 % of control

COC1=CC(=O)C(C#CCOCc2ccccc2)=CC1=O
inactive: dose: 7.5 mg/kg/injection, schedule: Q01DX005 (ip), vehicle: Klucel (hydroxypropylcellulose) (HPC) 100 % of control | dose: 15.0 mg/kg/injection, schedule: Q01DX005 (ip), vehicle: Klucel (hydroxypropylcellulose) (HPC) 102 % of control | dose: 30.0 mg/kg/injection, schedule: Q01DX005 (ip), vehicle: Klucel (hydroxypropylcellulose) (HPC) 105 % of control

COc1ccc(Cc2cc(O)c(O)cc2C)cc1
inactive: dose: 2.5 mg/kg/injection, schedule: Q01DX009 (ip), vehicle: saline with Tween-80 108 % of control | dose: 5.0 mg/kg/injection, schedule: Q01DX009 (ip), vehicle: saline with Tween-80 105 % of control | dose: 10.0 mg/kg/injection, schedule: Q01DX009 (ip), vehicle: saline with Tween-80 108 % of control

COC(=O)CSc1nnc(CSc2ccc(Cl)cc2)n1-c1ccccc1
inactive: [14] 93 % of control | [15] 92 % of control | [16] 96 % of control

CCCC(C)N(CC(=O)Nc1ccc(S(N)(=O)=O)cc1)C(C)=O (stereo not given)
inactive: [17] 100 % of control | [18] 107 % of control | [19] 109 % of control

CC(C)C1CCC(C)C1C(N)=O (stereo not given)
inactive: dose: 100.0 mg/kg/injection, schedule: Q04DX002 (ip), vehicle: saline with Tween-80 103 % of control | dose: 200.0 mg/kg/injection, schedule: Q04DX002 (ip), vehicle: saline with Tween-80 99 % of control | dose: 400.0 mg/kg/injection, schedule: Q04DX002 (ip), vehicle: saline with Tween-80 99 % of control

CSc1c(N(C)C)c(=O)c1=S
inactive: dose: 15.0 mg/kg/injection, schedule: Q01DX005 (ip), vehicle: saline with Tween-80 99 % of control | dose: 30.0 mg/kg/injection, schedule: Q01DX005 (ip), vehicle: saline with Tween-80 108 % of control | [14] 107 % of control

CCCCN(CCO)CC(O)Cn1cnc2c(N)ncnc21 (stereo not given)
inactive: dose: 60.0 mg/kg/injection, schedule: Q01DX005 (ip), vehicle: Klucel (hydroxypropylcellulose) (HPC) 94 % of control | dose: 120.0 mg/kg/injection, schedule: Q01DX005 (ip), vehicle: Klucel (hydroxypropylcellulose) (HPC) 87 % of control | dose: 240.0 mg/kg/injection, schedule: Q01DX005 (ip), vehicle: Klucel (hydroxypropylcellulose) (HPC) 87 % of control

Brc1nc(-[n+]2ccccc2)[n-]c1Br
inactive: [2] 101 % of control | [4] 99 % of control | [5] 100 % of control

CC(C)(CCl)C(=O)NN=C(c1ccccc1)c1ccccc1
inactive: [6] 107 % of control | [1] 107 % of control | [3] 110 % of control

CN(C)/N=C1/CCCCC1C(O)(c1ccccc1)c1ccccc1 (stereo not given)
inactive: [14] 97 % of control

Nc1[nH]c(=O)[nH]c(=O)c1S(=O)(=O)O
inactive: [17] 95 % of control | [18] 90 % of control | [19] 95 % of control

CCOC(=C\C=C\C1=[N+](C)c2ccccc2C1(C)C)/C=C/C=C1/N(C)c2ccccc2C1(C)C
inactive: dose: 1.56 mg/kg/injection, schedule: Q01DX009 (ip), vehicle: saline with Tween-80 117 % of control | dose: 3.13 mg/kg/injection, schedule: Q01DX009 (ip), vehicle: saline with Tween-80 114 % of control

O=C1CSC=NN1c1ccccc1
inactive: [14] 102 % of control | [15] 92 % of control | [16] 108 % of control

Cc1cccc(C)c1N=O
inactive: [17] 122 % of control and 124 % of control | [19] 87 % of control

CNc1c[nH]c(=O)[nH]c1=O
inactive: [7] 108 % of control | [8] 105 % of control | [9] 96 % of control

OC1C=C2CCN3Cc4cc5c(cc4C(C1O)C23)OCO5 (stereo not given)
inactive: dose: 8.75 mg/kg/injection, schedule: Q01DX009 (ip), vehicle: Klucel (hydroxypropylcellulose) (HPC) 96 % of control | dose: 17.5 mg/kg/injection, schedule: Q01DX009 (ip), vehicle: Klucel (hydroxypropylcellulose) (HPC) 96 % of control | dose: 35.0 mg/kg/injection, schedule: Q01DX009 (ip), vehicle: Klucel (hydroxypropylcellulose) (HPC) 106 % of control | dose: 70.0 mg/kg/injection, schedule: Q01DX009 (ip), vehicle: Klucel (hydroxypropylcellulose) (HPC) 109 % of control

O=C(c1ccccc1)C(C(=O)c1ccccc1)C(c1ccccc1)(c1ccccc1)c1ccccc1
inactive: dose: 12.5 mg/kg/injection, schedule: Q04DX003 (ip), vehicle: saline with Tween-80 97 % of control | [10] 99 % of control and 98 % of control | [11] 87 % of control | [12] 90 % of control and 91 % of control | [13] 88 % of control

N#CC1(Nc2ccccc2)CCCCC1
inactive: dose: 6.25 mg/kg/injection, schedule: Q01DX009 (ip), vehicle: saline with Tween-80 90 % of control | dose: 12.5 mg/kg/injection, schedule: Q01DX009 (ip), vehicle: saline with Tween-80 95 % of control | dose: 25.0 mg/kg/injection, schedule: Q01DX009 (ip), vehicle: saline with Tween-80 90 % of control

COC1CCC(NC(=O)N(N=O)C2CCC(OC)CC2)CC1 (stereo not given)
inactive: dose: 25.0 mg/kg/injection, schedule: Q01DX001 (ip), vehicle: distilled water + Tween-80 109 % of control | dose: 50.0 mg/kg/injection, schedule: Q01DX001 (ip), vehicle: distilled water + Tween-80 100 % of control | dose: 100.0 mg/kg/injection, schedule: Q01DX001 (ip), vehicle: distilled water + Tween-80 100 % of control | dose: 200.0 mg/kg/injection, schedule: Q01DX001 (ip), vehicle: distilled water + Tween-80 105 % of control

CC(CC(=O)c1ccccc1)=Nc1ccccc1
inactive: dose: 100.0 mg/kg/injection, schedule: Q01DX001 (ip), vehicle: saline sonified 110 % of control | dose: 200.0 mg/kg/injection, schedule: Q01DX001 (ip), vehicle: saline sonified 100 % of control | dose: 400.0 mg/kg/injection, schedule: Q01DX001 (ip), vehicle: saline sonified 100 % of control

CCCCCCCCCCCCCCC[N+]1([O-])CCCCC1
inactive: dose: 12.5 mg/kg/injection, schedule: Q01DX009 (ip), vehicle: saline 101 % of control | dose: 25.0 mg/kg/injection, schedule: Q01DX009 (ip), vehicle: saline 95 % of control | [20] 99 % of control and 101 % of control

NC(=S)N/N=C\c1nccc2ccc(N)cc12
inactive: [6] 94 % of control

Cc1cc2nnc(C)n2c(C)n1
inactive: [2] 95 % of control | [4] 96 % of control | [5] 93 % of control

O=C(Nc1cccc(Cl)c1)Nn1cnnc1
inactive: [20] 101 % of control | dose: 100.0 mg/kg/injection, schedule: Q01DX009 (ip), vehicle: saline 97 % of control | dose: 200.0 mg/kg/injection, schedule: Q01DX009 (ip), vehicle: saline 91 % of control
